The text below walks through data of US11312723B2, “Pyranopyrazole and pyrazolopyridine immunomodulators for treatment of autoimmune diseases” (The Rockefeller University, priority 2017, dated 2022).

For assay [1], the target named is Human alpha-thrombin (Homo sapiens (Human), UniProt P00734). Description: Thrombin counterscreen for selectivity, fluorogenic substrate cleavage. Particulars: 10 min pre-incubation, Boc-Val-Pro-Arg-AMC 20 μM. The assay is classed as biochemical. (A counterscreen serves to expose hits that act by an unwanted route or on another target.)
The target of assay [2] is Human FXIIa (Homo sapiens (Human), UniProt P00748). The assay is described as follows: Factor XIIa (FXIIa) inhibitory activity, chromogenic substrate (Pefachrome XIIa) cleavage. The assay is classed as biochemical. The conditions noted are these: 10 min pre-incubation, Pefachrome XIIa 400 μM.
Chain of Human FXIIa (P00748 373-615): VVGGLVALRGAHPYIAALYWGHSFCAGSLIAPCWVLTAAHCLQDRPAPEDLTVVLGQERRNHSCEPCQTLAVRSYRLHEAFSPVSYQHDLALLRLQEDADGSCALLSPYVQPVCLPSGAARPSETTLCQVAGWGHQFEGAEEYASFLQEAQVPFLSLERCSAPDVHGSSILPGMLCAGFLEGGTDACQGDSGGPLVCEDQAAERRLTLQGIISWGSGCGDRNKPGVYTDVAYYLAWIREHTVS
Chain of Human FXIIa (P00748 20-372 partner): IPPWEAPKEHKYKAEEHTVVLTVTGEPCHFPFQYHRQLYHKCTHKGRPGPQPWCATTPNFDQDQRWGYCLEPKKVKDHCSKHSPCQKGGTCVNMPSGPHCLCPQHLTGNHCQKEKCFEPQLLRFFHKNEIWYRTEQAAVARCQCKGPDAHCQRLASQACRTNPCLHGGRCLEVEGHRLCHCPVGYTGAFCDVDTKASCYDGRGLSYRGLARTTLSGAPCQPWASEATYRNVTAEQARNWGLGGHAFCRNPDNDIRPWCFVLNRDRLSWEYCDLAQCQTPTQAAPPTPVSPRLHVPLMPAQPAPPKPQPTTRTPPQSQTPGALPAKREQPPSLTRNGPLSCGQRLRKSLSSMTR

Structures can show the parent of a compound that is named as a salt. Bounds are passed on as bounds.

For the compound `Cc1cc(F)cc2c1NCCC2C(=O)n1nc2c(c1N)CCN(S(C)(=O)=O)C2` (single isomer, unassigned) [Example 53, (S*)-(3-amino-6-(methylsulfonyl)-4,5,6,7-tetrahydropyrazolo[3,4-c]pyridin-2-yl)(6-fluoro-8-methyl-1,2,3,4-tetrahydroquinolin-4-yl)methanone], the IC50 (in general, the concentration that gives 50% inhibition) was 9 µM in assay [1] and 10 nM in assay [2].

On to `Nc1c2c(nn1C(=O)C1CCNc3ccccc31)CN(S(=O)(=O)c1ccccc1)CC2` (centres unmarked) [Example 105, (3-amino-6-(phenylsulfonyl)-4,5,6,7-tetrahydro-pyrazolo[3,4-c]pyridin-2-yl)(1,2,3,4-tetrahydro-quinolin-4-yl)methanone], for which the half-inhibitory concentration (IC50) is greater than 100 µM in assay [1] and 1000 nM in assay [2].

Consider `CS(=O)(=O)N1CCc2c(nn(C(=O)C3CCNc4c(Cl)cccc43)c2N)C1` (centres unmarked) [Example 57, (3-amino-6-(methylsulfonyl)-4,5,6,7-tetrahydropyrazolo[3,4-c]pyridin-2-yl)(8-chloro-1,2,3,4-tetrahydroquinolin-4-yl)methanone], for which the IC50 in assay [1] came to 16 µM; in assay [2], 50 nM.

`Nc1c2c(nn1C(=O)C1CCNc3ccc(F)cc31)CCOC2` (centres unmarked) [Example 74, (3-amino-6,7-dihydropyrano[4,3-c]pyrazol-2(4H)-yl)(6-fluoro-1,2,3,4-tetrahydroquinolin-4-yl)methanone]: the IC50 in assay [1] came to 50 µM; in assay [2], 80 nM.

As to `COC(=O)N1CCc2c(nn(C(=O)C3CCNc4ccccc43)c2N)C1` (centres unmarked) [Example 114, methyl 3-amino-2-(1,2,3,4-tetrahydro-quinoline-4-carbonyl)-4,5-dihydro-2H-pyrazolo[3,4-c]pyridine-6(7H)-carboxylate], the results for the IC50 in assay [1] and in assay [2] were greater than 80 µM and 450 nM, respectively.

For the compound `CNS(=O)(=O)N1CCc2c(nn(C(=O)C3CCNc4ccccc43)c2N)C1` (centres unmarked) [Example 111, 3-amino-N-methyl-2-(1,2,3,4-tetrahydro-quinoline-4-carbonyl)-4,5-dihydro-2H-pyrazolo[3,4-c]pyridine-6(7H)-sulfonamide], the results for the IC50 in assay [1] and in assay [2] were greater than 50 µM and 2000 nM, respectively.

In the case of `CC(C)N1CCc2c(nn(C(=O)C3CCNc4ccc(F)cc43)c2N)C1` (centres unmarked) [Example 151, Formic Acid salt of (3-amino-6-isopropyl-4,5,6,7-tetrahydro-pyrazolo[3,4-c]pyridin-2-yl)(6-fluoro-1,2,3,4-tetrahydro-quinolin-4-yl)methanone], the IC50 is greater than 70 µM in assay [1] and 40 nM in assay [2].

Regarding `CCN1CCc2c(nn(C(=O)C3CCNc4ccccc43)c2N)C1` (centres unmarked) [Example 20, (3-amino-6-ethyl-4,5,6,7-tetrahydropyrazolo[3,4-c]pyridin-2-yl)(1,2,3,4-tetrahydroquinolin-4-yl)methanone], the values for the IC50 in assay [1] and in assay [2] were greater than 40 µM and 150 nM, respectively.

For `CS(=O)(=O)N1CCc2c(nn(C(=O)C3CCNc4ccc(-c5ccncc5)cc43)c2N)C1` (centres unmarked) [Example 168, (3-amino-6-(methylsulfonyl)-4,5,6,7-tetrahydro-pyrazolo[3,4-c]pyridin-2-yl)(6-(pyridin-4-yl)-1,2,3,4-tetrahydro-quinolin-4-yl)methanone], the IC50 in assay [1] was found to be 3.5 µM; in assay [2], 2000 nM.

On to `Nc1c2c(nn1C(=O)C1CCNc3ccc(F)cc31)CN(S(=O)(=O)CC(F)F)CC2` (centres unmarked) [Example 142, (3-amino-6-(2,2-difluoroethyl-sulfonyl)-4,5,6,7-tetrahydro-pyrazolo[3,4-c]pyridin-2-yl)(6-fluoro-1,2,3,4-tetrahydro-quinolin-4-yl)methanone], for which the figures for the concentration for half-maximal inhibition (IC50) in assay [1] and in assay [2] were 40 µM and 200 nM, respectively.

`CS(=O)(=O)N1CCc2c(N)nn(C(=O)C3CCNc4ccc(Cl)cc43)c2C1` (centres unmarked) [Example 15, (3-amino-6-(methylsulfonyl)-4,5,6,7-tetrahydropyrazolo[3,4-c]pyridin-1-yl)(6-chloro-1,2,3,4-tetrahydroquinolin-4-yl)methanone]: the IC50 in assay [1] was greater than 70 µM; in assay [2], greater than 65000 nM.

As for `CCS(=O)(=O)N1CCc2c(N)nn(C(=O)C3CCNc4ccccc43)c2C1` (centres unmarked) [Example 126, (3-amino-6-(ethylsulfonyl)-4,5,6,7-tetrahydro-pyrazolo[3,4-c]pyridin-1-yl)(1,2,3,4-tetrahydro-quinolin-4-yl)methanone], the IC50 was greater than 70 µM in assay [1] and 32000 nM in assay [2].

`CS(=O)(=O)N1CCc2nn(C(=O)C3CCNc4ccccc43)c(N)c2C1` (centres unmarked) [Example 91, (3-amino-5-(methylsulfonyl)-4,5,6,7-tetrahydro-pyrazolo[4,3-c]pyridin-2-yl)(1,2,3,4-tetrahydro-quinolin-4-yl)methanone]: the IC50 was greater than 70 µM in assay [1] and 1500 nM in assay [2].

With `CS(=O)(=O)N1CCc2c(nn(C(=O)C3CCNc4c(F)cccc43)c2N)C1` (centres unmarked) [Example 37, (3-amino-6-(methylsulfonyl)-4,5,6,7-tetrahydropyrazolo[3,4-c]pyridin-2-yl)(8-fluoro-1,2,3,4-tetrahydroquinolin-4-yl)methanone], the IC50 in assay [1] was 25 µM; in assay [2] it was 100 nM.

In the case of `Cc1cc2c(C(=O)n3nc4c(c3N)CCN(C(=O)OC(C)(C)C)C4)cccc2[nH]1` [Example 7, Tert-butyl 3-amino-2-(2-methyl-1H-indole-4-carbonyl)-4,5-dihydro-2H-pyrazolo[3,4-c]pyridine-6(7H)-carboxylate], the values for the IC50 in assay [1] and in assay [2] were greater than 25 µM and 70 nM, respectively.

For `CC(=O)N1CCc2c(nn(C(=O)c3cccc4[nH]c(C)cc34)c2N)C1` [Example 99, 1-(3-amino-2-(2-methyl-1H-indole-4-carbonyl)-4,5-dihydro-2H-pyrazolo[3,4-c]pyridin-6(7H)-yl)ethanone], the results for the IC50 in assay [1] and in assay [2] were greater than 50 µM and 40 nM, respectively.

For the compound `CCCN1CCc2c(nn(C(=O)C3CCNc4ccc(F)cc43)c2N)C1` (centres unmarked) [Example 149, (3-amino-6-propyl-4,5,6,7-tetrahydro-pyrazolo[3,4-c]pyridin-2-yl)(6-fluoro-1,2,3,4-tetrahydro-quinolin-4-yl)methanone], the IC50 in assay [1] is 64 µM; in assay [2], 50 nM.

Take `Nc1c2c(nn1C(=O)C1CCNc3ccc(F)cc31)CN(c1ccccc1)CC2` (centres unmarked) [Example 28, (3-amino-6-phenyl-4,5,6,7-tetrahydropyrazolo[3,4-c]pyridin-2-yl)(6-fluoro-1,2,3,4-tetrahydroquinolin-4-yl)methanone]: the results for the half-maximal inhibitory concentration (IC50) in assay [1] and in assay [2] were greater than 35 µM and 160 nM, respectively.

Consider `CCN1CCc2c(N)nn(C(=O)C3CCNc4ccccc43)c2C1` (centres unmarked) [Example 21, (3-amino-6-ethyl-4,5,6,7-tetrahydropyrazolo[3,4-c]pyridin-1-yl)(1,2,3,4-tetrahydroquinolin-4-yl)methanone], for which the IC50 was greater than 50 µM in assay [1] and 1500 nM in assay [2].

For the compound `COc1cccc2c1NCCC2C(=O)n1nc2c(c1N)CCN(S(C)(=O)=O)C2` (centres unmarked) [Example 61, (3-amino-6-(methylsulfonyl)-4,5,6,7-tetrahydropyrazolo[3,4-c]pyridin-2-yl)(8-methoxy-1,2,3,4-tetrahydroquinolin-4-yl)methanone], the IC50 came out at 20 µM in assay [1] and 100 nM in assay [2].

With `CCc1cc2c([nH]1)CCCC2C(=O)n1nc2c(c1N)CN(C(=O)OCc1ccccc1)CC2` (centres unmarked) [Example 4, Benzyl 3-amino-2-(2-ethyl-4,5,6,7-tetrahydro-1H-indole-4-carbonyl)-6,7-dihydro-2H-pyrazolo[4,3-c]pyridine-5(4H)-carboxylate], the IC50 was greater than 25 µM in assay [1] and 300 nM in assay [2].

In the case of `CCC(=O)N1CCc2c(nn(C(=O)C3CCNc4ccccc43)c2N)C1` (centres unmarked) [Example 119, 1-(3-amino-2-(1,2,3,4-tetrahydro-quinoline-4-carbonyl)-4,5-dihydro-2H-pyrazolo[3,4-c]pyridin-6(7H)-yl)propan-1-one], the IC50 in assay [1] was greater than 85 µM; in assay [2] it was 450 nM.

Turning to `CCN1CCc2c(nn(C(=O)[C@H]3CCNc4c(C)cccc43)c2N)C1` (single isomer, unassigned) [Example 173, (S*)-(3-amino-6-ethyl-4,5,6,7-tetrahydro-pyrazolo[3,4-c]pyridin-2-yl)(8-methyl-1,2,3,4-tetrahydroquinolin-4-yl)methanone], the IC50 in assay [1] was greater than 100 µM; in assay [2], 20 nM.

`CC(C)S(=O)(=O)N1CCc2c(nn(C(=O)C3CCNc4ccccc43)c2N)C1` (centres unmarked) [Example 127, (3-amino-6-(isopropyl-sulfonyl)-4,5,6,7-tetrahydro-pyrazolo[3,4-c]pyridin-2-yl)(1,2,3,4-tetrahydro-quinolin-4-yl)methanone]: the IC50 is greater than 70 µM in assay [1] and 200 nM in assay [2].

Consider `Nc1nn(C(=O)C2CCNc3ccccc32)c2c1CCN(S(=O)(=O)c1ccccc1)C2` (centres unmarked) [Example 106, (3-amino-6-(phenylsulfonyl)-4,5,6,7-tetrahydro-pyrazolo[3,4-c]pyridin-1-yl)(1,2,3,4-tetrahydro-quinolin-4-yl)methanone], for which the results for the IC50 in assay [1] and in assay [2] were 70 µM and 50000 nM, respectively.

With `COc1cccc2c1NCCC2C(=O)n1nc2c(c1N)CCN(S(C)(=O)=O)C2` (single isomer, unassigned) [Example 63, (S*)-(3-amino-6-(methylsulfonyl)-4,5,6,7-tetrahydropyrazolo[3,4-c]pyridin-2-yl)(8-methoxy-1,2,3,4-tetrahydroquinolin-4-yl)methanone], the IC50 in assay [1] is 35 µM; in assay [2], 140 nM.

With `Nc1c2c(nn1C(=O)C1CCNc3ccccc31)CN(C(=O)c1ccccc1)CC2` (centres unmarked) [Example 109, (3-amino-2-(1,2,3,4-tetrahydro-quinoline-4-carbonyl)-4,5-dihydro-2H-pyrazolo[3,4-c]pyridin-6(7H)-yl)(phenyl)-methanone], the IC50 in assay [1] was greater than 75 µM; in assay [2], 800 nM.

With `CS(=O)(=O)N1CCc2c(nn(C(=O)C3CCNc4c(Cl)cccc43)c2N)C1` (single isomer, unassigned) [Example 60, (S*)-(3-amino-6-(methylsulfonyl)-4,5,6,7-tetrahydropyrazolo[3,4-c]pyridin-2-yl)(8-chloro-1,2,3,4-tetrahydroquinolin-4-yl)methanone], the IC50 in assay [1] was greater than 60 µM; in assay [2] it was 30 nM.
